System: NanoLuc® enzyme and NanoLuc-Halotag fusion protein enzyme
Experiment: Spectral profile of the coelenterazine analogue/luciferase reaction (Tecan-M1000, 3 nm increments)
Assay type: biochemical, Oplophorus gracilirostris
Conditions: NanoGlo® buffer
Procedure: FIGS. 2A-2D show the spectral profiles of varying concentrations of TAK-0043 and enzyme in NanoGlo® buffer. […] TAK-0043 was tested as a potential coelenterazine analogue capable of shifting the emission spectrum in a coelenterazine/luciferase reaction. A dilution series of purified NanoLuc® enzyme (Promega E499a) and NanoLuc-Halotag fusion protein enzyme was prepared in OptiMEM+0.1% FBS starting 2 μM. 50 ul of the 2 μM enzyme dilutions were combined with 50 μl of 2 μM and 20 μM TAK-0043 in NanoGlo® buffer in triplicate. These samples were immediately read on the Tecan-M1000 using 3 nm increments to obtain spectral profiles. Another spectral measurement was completed by combining 50 μl of 6.6 μM NanoLuc® enzyme and NanoLuc-Halotag fusion protein enzyme in OptiMEM+0.1% FBS with 50 μl of 2 μM TAK-0043 in NanoGlo® buffer in triplicate. This sample was also read on the Tecan M-1000 using […] increments.

**Q.** What does the source list for `O=C(NCCCCCCOc1cccc(Cc2nc3c(Cc4ccccc4)[nH]c(-c4ccccc4)cn-3c2=O)c1)c1ccc(C(=O)O)c(C2=c3cc4c5c(c3Oc3c2cc2c6c3CCCN6CCCC2)CCC[N+]=5CCCC4)c1` [TAK-0043]?
**A.** peak for coelenterazine emission at 460 nm (TAK-0043 with NanoLuc® and NanoLuc-HaloTag fusion enzyme): nearly invisible; emitted photons shifted to NCT dye emission (all concentrations of TAK-0043 (1 or 10 uM) and enzyme (1 or 3.3 uM) used): > 95%; emission maximum (all concentrations of TAK-0043 and enzyme used): 618 nm

Reference: patent US10280447B2, “Substituted imidazo[1,2-A]pyrazines tethered to energy acceptors” (PROMEGA CORPORATION, priority 2016, dated 2019)
